Assay results published in paper PMC12669040, “Tumour-specific STING agonist synthesis via a two-component prodrug system” (Nature Chemistry, 2025).

System: STING pathway effectors (pSTING, pTBK1, pIRF3) in THP-1 Lucia ISG cells
Test: Western blots of STING pathway activation
Type: cell-based, human
Details: 5 μM
Procedure: THP-1 Lucia ISG cells were maintained as described above. […] Cells were treated with cycloheximide (50 µg ml^−1) and incubated for 50 min at 37 °C. Treated cells were then combined with the growth medium containing SC2S dimer (5 µM final concentration) to 1 × 10^6 cells ml^−1 and incubated at 37 °C. At each timepoint, a portion (3 ml) of the cell suspension was withdrawn. Withdrawn cells were pelleted (300g, 3 min), washed with PBS (1 ml), pelleted again (300g, 3 min) and resuspended to a density of 1 × 10^7 cells ml^−1 in ice-cold lysis buffer (25 mM Tris pH 7.6, 150 mM NaCl, 1% NP-40, 1% sodium deoxycholate and 0.1% SDS) supplied with protease/phosphatase inhibitor tablets (Pierce A32961) and freshly prepared phenylmethylsulfonyl fluoride (1 mM). Lysates were further disrupted by sonication at low power (5 s × 3 cycles). Sonicated lysates were clarified by centrifugation at 4 °C (13,000g, 5 min). […] Samples were reduced and denatured at 95 °C for 5 min before being separated on a precast polyacrylamide gel (Invitrogen NuPAGE 4–12% Bis-Tris, 20 µg total protein per lane). Protein bands were then transferred to a polyvinylidene difluoride membrane (Invitrogen iBlot2). […]

Compound: COc1cc2sc(C(=O)CCC(=O)O)cc2cc1SCCSc1cc2cc(C(=O)CCC(=O)O)sc2cc1OC [SC2S]
- phosphorylation of major STING pathway proteins: confirmed the phosphorylation of major STING pathway proteins
